Measurements reported in PubChem BioAssay (NCI).
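Five concentrations, 48 hours, 96-well plates. Here, GI50 denotes the concentration required for 50% inhibition of growth. The concentration for full growth arrest is given as TGI.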

What was measured:
Test in all cases: inhibition of tumour cell growth, NCI panel, 48 h
786-0 renal = system: 786-0 renal
A498 renal = system: A498 renal
A549 NSCLC = system: A549 NSCLC
ACHN renal = system: ACHN renal
BT-549 breast = system: BT-549 breast
CAKI-1 renal = system: CAKI-1 renal
CCRF-CEM leukemia = system: CCRF-CEM leukemia
COLO 205 colon = system: COLO 205 colon
DU-145 prostate = system: DU-145 prostate
EKVX NSCLC = system: EKVX NSCLC
HCC-2998 colon = system: HCC-2998 colon
HCT-116 colon = system: HCT-116 colon
HCT-15 colon = system: HCT-15 colon
HL-60(TB) leukemia = system: HL-60(TB) leukemia
HOP-62 NSCLC = system: HOP-62 NSCLC
HOP-92 NSCLC = system: HOP-92 NSCLC
HS 578T breast = system: HS 578T breast
HT29 colon = system: HT29 colon
IGROV1 ovarian = system: IGROV1 ovarian
K-562 leukemia = system: K-562 leukemia
KM12 colon = system: KM12 colon
LOX IMVI melanoma = system: LOX IMVI melanoma
M14 melanoma = system: M14 melanoma
MALME-3M melanoma = system: MALME-3M melanoma
MCF7 breast = system: MCF7 breast
MDA-MB-231 breast = system: MDA-MB-231 breast
MDA-MB-435 = system: MDA-MB-435
MOLT-4 leukemia = system: MOLT-4 leukemia
NCI-H226 lung = system: NCI-H226 lung
NCI-H23 lung = system: NCI-H23 lung
NCI-H460 lung = system: NCI-H460 lung
NCI-H522 lung = system: NCI-H522 lung
NCI/ADR-RES ovarian = system: NCI/ADR-RES ovarian
OVCAR-4 ovarian = system: OVCAR-4 ovarian
OVCAR-5 ovarian = system: OVCAR-5 ovarian
OVCAR-8 ovarian = system: OVCAR-8 ovarian
PC-3 prostate = system: PC-3 prostate
RPMI-8226 leukemia = system: RPMI-8226 leukemia
RXF 393 renal = system: RXF 393 renal
SF-268 CNS = system: SF-268 CNS
SF-295 CNS = system: SF-295 CNS
SF-539 CNS = system: SF-539 CNS
SK-MEL-2 melanoma = system: SK-MEL-2 melanoma
SK-MEL-28 melanoma = system: SK-MEL-28 melanoma
SK-MEL-5 melanoma = system: SK-MEL-5 melanoma
SK-OV-3 ovarian = system: SK-OV-3 ovarian
SN12C renal = system: SN12C renal
SNB-19 CNS = system: SNB-19 CNS
SNB-75 CNS = system: SNB-75 CNS
SR leukemia = system: SR leukemia
SW-620 colon = system: SW-620 colon
T-47D breast = system: T-47D breast
TK-10 renal = system: TK-10 renal
U251 CNS = system: U251 CNS
UACC-257 melanoma = system: UACC-257 melanoma
UACC-62 melanoma = system: UACC-62 melanoma
UO-31 renal = system: UO-31 renal

## O=C(NCCN1CCCC1)c1ccc(-c2nc3ccc4[nH]ncc4c3c3c2CCCC3)cc1
786-0 renal
  GI50: 580 nM
  TGI: 1350 nM
A498 renal
  GI50: 193 nM
  TGI: 911 nM
A549 NSCLC
  GI50: 1090 nM
  TGI: 5540 nM
ACHN renal
  GI50: 1070 nM
  TGI: 5890 nM
BT-549 breast
  GI50: 384 nM
  TGI: 1160 nM
CAKI-1 renal
  GI50: 199 nM
  TGI: 4380 nM
CCRF-CEM leukemia
  GI50: 497 nM
  TGI: 3270 nM
COLO 205 colon
  GI50: 625 nM
  TGI: 1490 nM
DU-145 prostate
  GI50: 677 nM
  TGI: 5340 nM
EKVX NSCLC
  GI50: 850 nM
  TGI: 5150 nM
HCC-2998 colon
  GI50: 870 nM
  TGI: 2820 nM
HCT-116 colon
  GI50: 252 nM
  TGI: 2020 nM
HCT-15 colon
  GI50: 1910 nM
  TGI: 7430 nM
HL-60(TB) leukemia
  GI50: 978 nM
  TGI: 2320 nM
HOP-62 NSCLC
  GI50: 497 nM
  TGI: 2140 nM
HOP-92 NSCLC
  GI50: 99.7 nM
  TGI: 864 nM
HS 578T breast
  GI50: 189 nM
  TGI: 1390 nM
HT29 colon
  GI50: 996 nM
  TGI: 3510 nM
IGROV1 ovarian
  GI50: 351 nM
  TGI: 4060 nM
K-562 leukemia
  GI50: 760 nM
  TGI: 3880 nM
KM12 colon
  GI50: 237 nM
  TGI: 2910 nM
LOX IMVI melanoma
  GI50: 622 nM
  TGI: 1360 nM
M14 melanoma
  GI50: 729 nM
  TGI: 1550 nM
MALME-3M melanoma
  GI50: 769 nM
  TGI: 1650 nM
MCF7 breast
  GI50: 807 nM
  TGI: 4150 nM
MDA-MB-231 breast
  GI50: 796 nM
  TGI: 2430 nM
MDA-MB-435
  GI50: 654 nM
  TGI: 3890 nM
MOLT-4 leukemia
  GI50: 486 nM
  TGI: 2640 nM
NCI-H226 lung
  GI50: 716 nM
  TGI: 5250 nM
NCI-H23 lung
  GI50: 802 nM
  TGI: 2460 nM
NCI-H460 lung
  GI50: 628 nM
  TGI: 1570 nM
NCI-H522 lung
  GI50: 289 nM
  TGI: 1050 nM
NCI/ADR-RES ovarian
  GI50: 10700 nM
  TGI: 50000 nM
OVCAR-4 ovarian
  GI50: 1050 nM
  TGI: 5080 nM
OVCAR-5 ovarian
  GI50: 1390 nM
  TGI: 4440 nM
OVCAR-8 ovarian
  GI50: 798 nM
  TGI: 3160 nM
PC-3 prostate
  GI50: 682 nM
  TGI: 2770 nM
RPMI-8226 leukemia
  GI50: 871 nM
  TGI: 2270 nM
RXF 393 renal
  GI50: 241 nM
  TGI: 955 nM
SF-268 CNS
  GI50: 703 nM
  TGI: 1790 nM
SF-295 CNS
  GI50: 1060 nM
  TGI: 4160 nM
SF-539 CNS
  GI50: 515 nM
  TGI: 1170 nM
SK-MEL-2 melanoma
  GI50: 726 nM
  TGI: 1880 nM
SK-MEL-28 melanoma
  GI50: 919 nM
  TGI: 2680 nM
SK-MEL-5 melanoma
  GI50: 1100 nM
  TGI: 2530 nM
SK-OV-3 ovarian
  GI50: 232 nM
  TGI: 2170 nM
SN12C renal
  GI50: 882 nM
  TGI: 4460 nM
SNB-19 CNS
  GI50: 1130 nM
  TGI: 5060 nM
SNB-75 CNS
  GI50: 259 nM
  TGI: 1850 nM
SR leukemia
  GI50: 94.1 nM
  TGI: 1900 nM
SW-620 colon
  GI50: 607 nM
  TGI: 3140 nM
T-47D breast
  GI50: 1070 nM
  TGI: 6100 nM
TK-10 renal
  GI50: 443 nM
  TGI: 7360 nM
U251 CNS
  GI50: 717 nM
  TGI: 2250 nM
UACC-257 melanoma
  GI50: 1050 nM
  TGI: 2440 nM
UACC-62 melanoma
  GI50: 1200 nM
  TGI: 5600 nM
UO-31 renal
  GI50: 1400 nM
  TGI: 6340 nM

## O=c1c2cc(-c3ccc(F)cc3F)ccc2n(Nc2ccccc2)c(=O)n1-c1cccc(C(F)(F)F)c1
786-0 renal
  GI50: 1860 nM
  TGI: 3830 nM
A498 renal
  GI50: 358 nM
  TGI: 1250 nM
A549 NSCLC
  GI50: 2960 nM
  TGI: 12700 nM
ACHN renal
  GI50: 1810 nM
  TGI: 5310 nM
BT-549 breast
  GI50: 1120 nM
  TGI: 2530 nM
CAKI-1 renal
  GI50: 1510 nM
  TGI: 4370 nM
CCRF-CEM leukemia
  GI50: 1970 nM
  TGI: 9760 nM
COLO 205 colon
  GI50: 1800 nM
  TGI: 3270 nM
DU-145 prostate
  GI50: 2560 nM
  TGI: 61700 nM
EKVX NSCLC
  GI50: 2350 nM
  TGI: 7910 nM
HCC-2998 colon
  GI50: 2550 nM
  TGI: 6840 nM
HCT-116 colon
  GI50: 1030 nM
  TGI: 2340 nM
HCT-15 colon
  GI50: 812 nM
  TGI: 2550 nM
HOP-62 NSCLC
  GI50: 1800 nM
  TGI: 4110 nM
HOP-92 NSCLC
  GI50: 190 nM
  TGI: 679 nM
HS 578T breast
  GI50: 1060 nM
  TGI: 4200 nM
HT29 colon
  GI50: 2840 nM
  TGI: 7740 nM
IGROV1 ovarian
  GI50: 1910 nM
  TGI: 13300 nM
K-562 leukemia
  GI50: 717 nM
  TGI: > 100000 nM
KM12 colon
  GI50: 2170 nM
  TGI: 5660 nM
LOX IMVI melanoma
  GI50: 1530 nM
  TGI: 3120 nM
M14 melanoma
  GI50: 1650 nM
  TGI: 4170 nM
MALME-3M melanoma
  GI50: 1500 nM
  TGI: 5050 nM
MCF7 breast
  GI50: 1810 nM
  TGI: 7440 nM
MDA-MB-231 breast
  GI50: 1780 nM
  TGI: 5620 nM
MDA-MB-435
  GI50: 1520 nM
  TGI: 5040 nM
MOLT-4 leukemia
  GI50: 1790 nM
  TGI: 5660 nM
NCI-H226 lung
  GI50: 1320 nM
  TGI: 3420 nM
NCI-H23 lung
  GI50: 1060 nM
  TGI: 4320 nM
NCI-H460 lung
  GI50: 775 nM
  TGI: 4390 nM
NCI-H522 lung
  GI50: 440 nM
  TGI: 2410 nM
NCI/ADR-RES ovarian
  GI50: 1910 nM
  TGI: 7740 nM
OVCAR-4 ovarian
  GI50: 2670 nM
  TGI: > 100000 nM
OVCAR-5 ovarian
  GI50: 3150 nM
  TGI: 56300 nM
OVCAR-8 ovarian
  GI50: 1230 nM
  TGI: 3720 nM
PC-3 prostate
  GI50: 1350 nM
  TGI: 5190 nM
RPMI-8226 leukemia
  GI50: 460 nM
  TGI: 2570 nM
RXF 393 renal
  GI50: 1200 nM
  TGI: 2840 nM
SF-268 CNS
  GI50: 1700 nM
  TGI: 7980 nM
SF-295 CNS
  GI50: 1830 nM
  TGI: 3820 nM
SF-539 CNS
  GI50: 1570 nM
  TGI: 5640 nM
SK-MEL-2 melanoma
  GI50: 532 nM
  TGI: 2100 nM
SK-MEL-28 melanoma
  GI50: 1280 nM
  TGI: 4690 nM
SK-MEL-5 melanoma
  GI50: 354 nM
  TGI: 1350 nM
SK-OV-3 ovarian
  GI50: 1270 nM
  TGI: 3010 nM
SN12C renal
  GI50: 1000 nM
  TGI: 5010 nM
SNB-19 CNS
  GI50: 931 nM
  TGI: > 100000 nM
SNB-75 CNS
  GI50: 1400 nM
  TGI: 4860 nM
SR leukemia
  GI50: 1110 nM
  TGI: 4530 nM
SW-620 colon
  GI50: 1510 nM
  TGI: 3550 nM
T-47D breast
  GI50: 1400 nM
  TGI: 5370 nM
TK-10 renal
  GI50: 3980 nM
  TGI: 8500 nM
U251 CNS
  GI50: 1740 nM
  TGI: 10300 nM
UACC-257 melanoma
  GI50: 963 nM
  TGI: 3820 nM
UACC-62 melanoma
  GI50: 337 nM
  TGI: 1410 nM
UO-31 renal
  GI50: 1980 nM
  TGI: 5960 nM
